# According to ChEMBL document CHEMBL1201862, “PubChem BioAssay data set” (2004):
#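 Method: 48-hour compound exposure of cells in 96-well plates, five concentrations, linear interpolation of endpoints. The concentration for 50% growth inhibition is given as GI50.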 Calls of active or inactive are those of the source. Cut-off read from the data, not from the text of the source: active = GI50 up to about 1.1 µM and inactive = higher.
# What was measured:
# Assay in all cases: DTP human tumour cell line panel, 48 h
# [1] = test system: COLO 205
# [2] = test system: SR
# [3] = test system: NCI-H226
# [4] = test system: SW-620
# [5] = test system: SK-MEL-5
# [6] = test system: SNB-78
# [7] = test system: M19-MEL
# [8] = test system: RXF 631
# [9] = test system: HL-60
# [10] = test system: SF-539
# [11] = test system: MOLT-4
# [12] = test system: SK-MEL-2
# [13] = test system: HT-29
# [14] = test system: SNB-19
# [15] = test system: SK-OV-3
# [16] = test system: SF-295
# [17] = test system: NCI-H23
# [18] = test system: OVCAR-3
# [19] = test system: NCI-H522
# [20] = test system: TK-10
# [21] = test system: DMS-114
# [22] = test system: IGROV-1
# [23] = test system: OVCAR-4
# [24] = test system: HOP-92
# [25] = test system: K562
# [26] = test system: A549
# [27] = test system: SNB-75
# [28] = test system: HCT-116
# [29] = test system: XF498
# [30] = test system: RXF 393
# [31] = test system: KM-20L2
# [32] = test system: UACC-62
# [33] = test system: HOP-62
# [34] = test system: UACC-257
# [35] = test system: OVCAR-8
# [36] = test system: LOX IMVI
# [37] = test system: RPMI-8226
# [38] = test system: SN12C
# [39] = test system: UO-31
# [40] = test system: ACHN
# [41] = test system: SF-268
# [42] = test system: KM12
# [43] = test system: SK-MEL-28
# [44] = test system: M14
# [45] = test system: U-251
# [46] = test system: DLD-1
# [47] = test system: 786-0
# [48] = test system: NCI-H460
# [49] = test system: LXFL 529
# [50] = test system: OVCAR-5
# [51] = test system: CCRF-CEM
# [52] = test system: CAKI-1
# [53] = test system: HCC 2998
# [54] = test system: DMS-273
# [55] = test system: HOP-18
# [56] = test system: EKVX
# [57] = test system: HCT-15
# [58] = test system: Malme-3M
# [59] = test system: A498
compound,measurement,setting,value
S=C1OC2CCCC[C@H]2O1 (some centres not stated),GI50,[1],> 100 µM (inactive)
same,GI50,[2],> 100 µM (inactive)
same,GI50,[3],> 100 µM (inactive)
same,GI50,[4],> 100 µM (inactive)
same,GI50,[5],> 100 µM (inactive)
same,GI50,[6],> 100 µM (inactive)
same,GI50,[7],> 100 µM (inactive)
same,GI50,[8],> 100 µM (inactive)
same,GI50,[9],> 100 µM (inactive)
same,GI50,[10],> 100 µM (inactive)
same,GI50,[11],> 100 µM (inactive)
same,GI50,[12],> 100 µM (inactive)
same,GI50,[13],> 100 µM (inactive)
same,GI50,[14],> 100 µM (inactive)
same,GI50,[15],> 100 µM (inactive)
same,GI50,[16],> 100 µM (inactive)
same,GI50,[17],> 100 µM (inactive)
same,GI50,[18],> 100 µM (inactive)
same,GI50,[19],> 100 µM (inactive)
same,GI50,[20],> 100 µM (inactive)
same,GI50,[21],> 100 µM (inactive)
same,GI50,[22],> 100 µM (inactive)
same,GI50,[23],> 100 µM (inactive)
same,GI50,[24],> 100 µM (inactive)
same,GI50,[25],> 100 µM (inactive)
same,GI50,[26],> 100 µM (inactive)
same,GI50,[27],> 100 µM (inactive)
same,GI50,[28],> 100 µM (inactive)
same,GI50,[29],> 100 µM (inactive)
same,GI50,[30],> 100 µM (inactive)
same,GI50,[31],> 100 µM (inactive)
same,GI50,[32],> 100 µM (inactive)
same,GI50,[33],> 100 µM (inactive)
same,GI50,[34],> 100 µM (inactive)
same,GI50,[35],> 100 µM (inactive)
same,GI50,[36],> 100 µM (inactive)
same,GI50,[37],> 100 µM (inactive)
same,GI50,[38],> 100 µM (inactive)
same,GI50,[39],> 100 µM (inactive)
same,GI50,[40],> 100 µM (inactive)
same,GI50,[41],> 100 µM (inactive)
same,GI50,[42],> 100 µM (inactive)
same,GI50,[43],> 100 µM (inactive)
same,GI50,[44],> 100 µM (inactive)
same,GI50,[45],> 100 µM (inactive)
same,GI50,[46],> 100 µM (inactive)
same,GI50,[47],> 100 µM (inactive)
same,GI50,[48],> 100 µM (inactive)
same,GI50,[49],> 100 µM (inactive)
same,GI50,[50],> 100 µM (inactive)
same,GI50,[51],> 100 µM (inactive)
same,GI50,[52],> 100 µM (inactive)
same,GI50,[53],> 100 µM (inactive)
same,GI50,[54],> 100 µM (inactive)
same,GI50,[55],> 100 µM (inactive)
same,GI50,[56],> 100 µM (inactive)
COC(=O)C(CC(=O)c1ccccc1)c1ccccc1NC(C)=O (configuration not stated),GI50,[1],> 100 µM (inactive)
same,GI50,[2],> 100 µM (inactive)
same,GI50,[3],> 100 µM (inactive)
same,GI50,[4],> 100 µM (inactive)
same,GI50,[5],> 100 µM (inactive)
same,GI50,[6],> 100 µM (inactive)
same,GI50,[7],> 100 µM (inactive)
same,GI50,[8],> 100 µM (inactive)
same,GI50,[9],> 100 µM (inactive)
same,GI50,[57],> 100 µM
same,GI50,[10],> 100 µM (inactive)
same,GI50,[11],> 100 µM (inactive)
same,GI50,[13],> 100 µM (inactive)
same,GI50,[14],> 100 µM (inactive)
same,GI50,[15],> 100 µM (inactive)
same,GI50,[58],> 100 µM (inactive)
same,GI50,[16],> 100 µM (inactive)
same,GI50,[17],> 100 µM (inactive)
same,GI50,[18],> 100 µM (inactive)
same,GI50,[19],> 100 µM (inactive)
same,GI50,[20],> 100 µM (inactive)
same,GI50,[21],> 100 µM (inactive)
same,GI50,[22],> 100 µM (inactive)
same,GI50,[23],> 100 µM (inactive)
same,GI50,[24],> 100 µM (inactive)
same,GI50,[25],> 100 µM (inactive)
same,GI50,[26],> 100 µM (inactive)
same,GI50,[27],87.1 µM (inactive)
same,GI50,[28],> 100 µM (inactive)
same,GI50,[29],> 100 µM (inactive)
same,GI50,[31],> 100 µM (inactive)
same,GI50,[32],> 100 µM (inactive)
same,GI50,[33],> 100 µM (inactive)
same,GI50,[34],> 100 µM (inactive)
same,GI50,[35],> 100 µM (inactive)
same,GI50,[36],> 100 µM (inactive)
same,GI50,[37],> 100 µM (inactive)
same,GI50,[38],> 100 µM (inactive)
same,GI50,[39],29.9 µM (inactive)
same,GI50,[40],> 100 µM (inactive)
same,GI50,[41],> 100 µM (inactive)
same,GI50,[42],> 100 µM (inactive)
same,GI50,[43],> 100 µM (inactive)
same,GI50,[44],> 100 µM (inactive)
same,GI50,[45],> 100 µM (inactive)
same,GI50,[46],> 100 µM (inactive)
same,GI50,[47],> 100 µM (inactive)
same,GI50,[48],> 100 µM (inactive)
same,GI50,[49],> 100 µM (inactive)
same,GI50,[50],> 100 µM (inactive)
same,GI50,[59],> 100 µM (inactive)
same,GI50,[51],> 100 µM (inactive)
same,GI50,[52],> 100 µM (inactive)
same,GI50,[53],> 100 µM (inactive)
same,GI50,[55],> 100 µM (inactive)
same,GI50,[56],> 100 µM (inactive)
